Test [1] concerns the target T1, human glutamine synthetase (hGS) (Homo sapiens, UniProt P15104).
T1 construct: gene GLUL
Nature of the test: microtiter phosphate-release GS activity assay, Lineweaver-Burk and secondary plot; IC50 […]. It is filed as biochemical.

In test [2] the target is T1, human glutamine synthetase (hGS). The test is described as above. It is filed as biochemical. This is another data set of the same source.

The values below come from paper PMC7539200, “Glufosinate constrains synchronous and metachronous metastasis by promoting anti‐tumor macrophages” (EMBO Molecular Medicine, 2020).

Like-named read-outs stand apart in the source and are kept apart here.

T1 sequence (P15104 2-373): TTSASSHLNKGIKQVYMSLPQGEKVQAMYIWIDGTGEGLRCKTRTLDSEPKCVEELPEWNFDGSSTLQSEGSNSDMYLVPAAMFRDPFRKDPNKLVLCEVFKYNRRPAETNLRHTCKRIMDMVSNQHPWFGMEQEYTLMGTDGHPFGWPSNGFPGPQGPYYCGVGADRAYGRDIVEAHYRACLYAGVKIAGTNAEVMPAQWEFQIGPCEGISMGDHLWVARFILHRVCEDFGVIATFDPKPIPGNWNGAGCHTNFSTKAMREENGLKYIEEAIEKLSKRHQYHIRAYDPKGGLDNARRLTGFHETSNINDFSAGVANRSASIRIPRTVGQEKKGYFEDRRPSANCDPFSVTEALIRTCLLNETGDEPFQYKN

In the case of `CP(=O)(O)CCC(N)C(=O)O` (centres unmarked) [Glufosinate], in test [1], the Ki was ~19.5 µM. In test [2], `CS(=N)(=O)CCC(N)C(=O)O` (centres unmarked) [Methionine sulfoximine] displayed a Ki of 880 µM.
